Values quoted from earlier work in patent US20040072765A1, “Cardiovascular and bone treatment using isoflavones” (Novogen Research Pty Ltd., priority 1999, published 2004).

Assays:
[1] = low doses, rats
[2] = men and women

O=c1c(-c2ccc(O)cc2)coc2cc(O)cc(O)c12 [Genistein, genistein]
cortical and trabecular bone density [1]: increased

CCOC(=O)C(C)(C)Oc1ccc(Cl)cc1 [clofibrinate]
increase in HDL levels [2]: about 10%
